Article PMC10253161, “New 5-Hydroxycoumarin-Based Tyrosyl-DNA Phosphodiesterase I Inhibitors Sensitize Tumor Cell Line to Topotecan” (International Journal of Molecular Sciences, 2023)
Read-outs that look alike come from different tables or passages of the source.

What was measured:
[1] = Cytotoxicity of compounds, MTT test, HEK293A; format: cell-based; details: human, HEK293A cells, compound alone, read-out: CC50 HEK 293A
Method: (§1) The cytotoxicity of the compounds to HeLa (human cervical cancer) and HEK293A (human embryonic kidney) cell lines was determined using standard colorimetric MTT-test. Cells were seeded in 96-well plates (5000 cells per well) and cultured in DMEM medium (Invitrogen, Carlsbad, CA, USA) supplemented with 10% fetal bovine serum (FBS) (Invitrogen), penicillin (100 units/mL), and streptomycin (100 μg/mL) at 37 °C and 5% CO2 in a humid atmosphere. Control wells contained 1% DMSO. At 30–50% confluence, the tested compounds were added to the medium. To determine the cytotoxicity of Tdp1 inhibitors, the cells were allowed to attach for 24 h and were treated with compounds with concentrations ranging from 1 to 100 μM for 72 h at 37 °C. All measurements were repeated three times.

[2] = Cytotoxicity of compounds, MTT test, HeLa; format: cell-based; details: human, HeLa cells, compound alone
Method: as §1

[3] = biological target: T1, TDP1 (Homo sapiens, UniProt Q9NUW8); experiment: Real-time fluorescence detection of TDP1 activity (FAM/BHQ1 oligonucleotide biosensor); format: biochemical
T1 construct: made in house
Text: To determine the inhibitory properties of the new compounds against TDP1 we used a previously designed real-time oligonucleotide biosensor with 5(6)-carboxyfluorescein (FAM) at the 5′ end and fluorophore quencher BHQ1 (Black Hole Quencher-1) at the 3′-end.
The biosensor, 16-mer DNA oligonucleotide (5′-[FAM] AAC GTC AGGGTC TTC C [BHQ]-3′) was synthesized in the Laboratory of Nucleic Acid Chemistry at the Institute of Chemical Biology and Fundamental Medicine (Novosibirsk, Russia). Real-time fluorescence detection of TDP1 enzyme activity was carried out as described. The recombinant TDP1 was purified as described, using plasmid pET 16B-TDP1, kindly provided by Dr. K.W. Caldecott (University of Sussex, Brighton, UK). To the reaction mixture (200 μL) containing 50 nM oligonucleotide in buffer (50 mM Tris-HCl, pH 8.0, 50 mM NaCl, and 7 mM β-mercaptoethanol), varied concentrations of the tested compounds and purified TDP1 in a final concentration of 1.5 nM were added.
Fluorescence intensity was measured (Ex485/Em520 nm) using POLARstar OPTIMA fluorimeter (BMG LABTECH, GmbH, Ortenberg, Germany) every 1 min for 7 min. The half maximal inhibitory concentrations (IC50) were determined using a six-point concentration response curve and calculated using MARS Data Analysis 2.0 (BMG LABTECH). At least three independent experiments were carried out to obtain the IC50 values.

[4] = test system: HEK293A cells; experiment: Effect of compounds on topotecan cytotoxicity, MTT test, HEK293A; format: cell-based, human; details: 10 µM compound, result in words
Method: as §1
(§2) To study the effect of the compounds on the cytotoxicity of topotecan, an aqueous solution of topotecan was used at concentrations from 0.2 to 2 μM for HeLa cells and from 0.05 to 0.5 μM for HEK293A cells against the background of 10 μM of the compounds. Cells treated with compounds alone without topotecan were used as controls.

[5] = test system: HeLa cells; experiment: Effect of compounds on topotecan cytotoxicity, MTT test, HeLa; format: cell-based, human
Method: as §1, §2

[6] = biological target: T1, TDP1; design: method as in PMID 27658793, PMID 31878088; details: previously found 7-hydroxycoumarin derivatives; cited from earlier work
[7] = Effect of compounds on topotecan cytotoxicity, MTT test, HEK293A; format: cell-based, human; details: human
Method: as §1, §2

[8] = Table 1, recombinant TDP1 1.5 nM, 50 nM oligonucleotide, read-out: TDP1 inhibitory activities (IC50)
[9] = Table 2, TDP1 IC50, partly rounded, read-out: IC50

T1 sequence (Q9NUW8 whole entry): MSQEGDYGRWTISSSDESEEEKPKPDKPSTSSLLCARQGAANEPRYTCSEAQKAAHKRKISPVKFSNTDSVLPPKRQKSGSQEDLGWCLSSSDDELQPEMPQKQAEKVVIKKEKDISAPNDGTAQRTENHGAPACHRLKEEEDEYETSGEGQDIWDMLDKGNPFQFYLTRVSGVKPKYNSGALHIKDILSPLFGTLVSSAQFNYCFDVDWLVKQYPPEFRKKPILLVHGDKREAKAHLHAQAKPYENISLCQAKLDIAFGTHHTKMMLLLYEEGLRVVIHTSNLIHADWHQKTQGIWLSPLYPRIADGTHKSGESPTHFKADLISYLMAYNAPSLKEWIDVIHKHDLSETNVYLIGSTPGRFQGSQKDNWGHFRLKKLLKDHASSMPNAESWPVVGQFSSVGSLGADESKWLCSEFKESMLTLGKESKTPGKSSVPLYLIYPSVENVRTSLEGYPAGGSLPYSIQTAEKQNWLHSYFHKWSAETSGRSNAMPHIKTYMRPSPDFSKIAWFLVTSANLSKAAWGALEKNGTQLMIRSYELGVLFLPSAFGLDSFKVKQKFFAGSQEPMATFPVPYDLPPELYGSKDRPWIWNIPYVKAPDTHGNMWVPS

SMILES | CC50 at 72 h [1] [µM] | melting point [°C] | CC50 at 72 h [2] [µM] | IC50 [3, 8] [µM] | IC50 [3, 9] [µM] | Effect on the cytotoxic effect of topotecan, HEK293A [4] | Effect on the cytotoxicity of topotecan, HeLa ([5]; 10 µM compound, result in words) | IC50 [6] [µM] | CC50 ([5]; Homo sapiens, HeLa, read-out: Tpc CC50 HeLa) [µM] | CC50 [7] [µM]
COc1ccccc1-c1c(C)c2c(OC/C=C(\C)CCC=C(C)C)cccc2oc1=O [37a, (E)-5-(3,7-Dimethylocta-2,6-dienyloxy)-3-(2-methoxyphenyl)-4-methyl-2H-chromen-2-one] | 16 ± 0.7 | 99 | 18 ± 10 | 1.22 ± 0.04 | 1.22 ± 0.04 | – | – | – | – | –
COc1ccccc1-c1c(C)c2c(OCC3=CC[C@H]4C[C@@H]3C4(C)C)cccc2oc1=O [37c, 5-(((1R,5S)-6,6-Dimethylbicyclo[3.1.1]hept-2-en-2-yl)methoxy)-3-(2-methoxyphenyl)-4-methyl-2H-chromen-2-one] | 52.3 ± 0.9 | 164 | 72 ± 2 | 0.79 ± 0.06 | 0.79 ± 0.06 | protect cells from the cytotoxic effects of topotecan | – | – | – | –
Cc1c(-c2ccccc2Br)c(=O)oc2cccc(OCC3=CC[C@H]4C[C@@H]3C4(C)C)c12 [36c, 3-(2-Bromophenyl)-5-(((1R,5S)-6,6-dimethylbicyclo[3.1.1]hept-2-en-2-yl)methoxy)-4-methyl-2H-chromen-2-one] | > 100 | 157 | 73.5 ± 0.6 | 4.36 ± 1.14 | 4.36 ± 1.14 | – | – | – | – | –
Cc1c(-c2ccc(F)cc2)c(=O)oc2cccc(OCCC3=CC[C@H]4C[C@@H]3C4(C)C)c12 [33d, 5-(2-((1R,5S)-6,6-Dimethylbicyclo[3.1.1]hept-2-en-2-yl)ethoxy)-3-(4-fluorophenyl)-4-methyl-2H-chromen-2-one] | – | 114 | – | 2.51 ± 0.14 | – | – | – | – | – | –
CC(C)=CCC/C(C)=C/COc1cccc2oc(=O)c(-c3ccc(F)cc3)c(C)c12 [33a, (E)-5-(3,7-Dimethylocta-2,6-dienyloxy)-3-(4-fluorophenyl)-4-methyl-2H-chromen-2-one] | > 100 | – | > 100 | 0.13 ± 0.03 | 0.13 ± 0.03 | – | significantly increased cytotoxicity of topotecan | – | – | –
CC(C)=CCC/C(C)=C/COc1ccc2c(-c3ccc(F)cc3)cc(=O)oc2c1 [compound 12] | – | – | – | – | – | – | – | 0.6 | – | –
Cc1c(-c2ccc(F)cc2)c(=O)oc2cccc(OCC3=CC[C@H]4C[C@@H]3C4(C)C)c12 [33c, 5-(((1R,5S)-6,6-Dimethylbicyclo[3.1.1]hept-2-en-2-yl)methoxy)-3-(4-fluorophenyl)-4-methyl-2H-chromen-2-one] | > 100 | 152 | 89 ± 7 | 5.25 ± 0.04 | 5.25 ± 0.04 | – | – | – | – | –
CC(C)=CCC/C(C)=C/COc1cccc2oc(=O)c(-c3ccccc3Br)c(C)c12 [36a, (E)-3-(2-Bromophenyl)-5-(3,7-dimethylocta-2,6-dienyloxy)-4-methyl-2H-chromen-2-one] | 59 ± 6 | – | 49 ± 2 | 0.85 ± 0.15 | 0.9 ± 0.2 | – | – | – | – | –
CC1(C)C2CC=C(COc3ccc4c5c(c(=O)oc4c3)CCC5)C1C2 (stereo not drawn) [compound 11] | – | – | – | – | – | – | – | 0.7 | – | –
Cc1c(-c2ccccc2[N+](=O)[O-])c(=O)oc2cccc(OCC3=CC[C@H]4C[C@@H]3C4(C)C)c12 [38c, 5-(((1R,5S)-6,6-Dimethylbicyclo[3.1.1]hept-2-en-2-yl)methoxy)-4-methyl-3-(2-nitrophenyl)-2H-chromen-2-one] | 32 ± 13 | – | 83 ± 3 | 3.83 ± 0.29 | 3.8 ± 0.3 | – | – | – | – | –
Cc1c(-c2ccc(Br)cc2)c(=O)oc2cccc(OCC3=CC[C@H]4C[C@@H]3C4(C)C)c12 [34c, 3-(4-Bromophenyl)-5-(((1R,5S)-6,6-dimethylbicyclo[3.1.1]hept-2-en-2-yl)methoxy)-4-methyl-2H-chromen-2-one] | > 100 | 148 | > 100 | 0.9 ± 0.07 | 0.9 ± 0.07 | protect cells from the cytotoxic effects of topotecan | – | – | – | –
Cc1c(-c2ccccc2Br)c(=O)oc2cccc(OCCC(C)CCCC(C)C)c12 (stereo not drawn) [36b, 3-(2-Bromophenyl)-5-(3,7-dimethyloctyloxy)-4-methyl-2H-chromen-2-one] | – | 73 | – | ≥ 50 | – | – | – | – | – | –
COc1ccc(-c2c(C)c3c(OC/C=C(\C)CCC=C(C)C)cccc3oc2=O)cc1 [35a, (E)-5-(3,7-Dimethylocta-2,6-dienyloxy)-3-(4-methoxyphenyl)-4-methyl-2H-chromen-2-one] | > 100 | 85 | > 100 | 6.63 ± 1.12 | 7 ± 1 | – | – | – | – | –
COc1ccc(-c2c(C)c3c(OCCC(C)CCCC(C)C)cccc3oc2=O)cc1 (stereo not drawn) [35b, 5-(3,7-Dimethyloctyloxy)-3-(4-methoxyphenyl)-4-methyl-2H-chromen-2-one] | > 100 | – | 90.7 ± 0.5 | 0.37 ± 0.16 | 0.4 ± 0.2 | – | – | – | – | –
COc1ccccc1-c1c(C)c2c(OCCC(C)CCCC(C)C)cccc2oc1=O (stereo not drawn) [37b, 5-(3,7-Dimethyloctyloxy)-3-(2-methoxyphenyl)-4-methyl-2H-chromen-2-one] | – | 114 | – | 2.6 ± 0.35 | – | – | – | – | – | –
CC[C@@]1(O)C(=O)OCc2c1cc1n(c2=O)Cc2cc3c(CN(C)C)c(O)ccc3nc2-1 [Tpc, topotecan] | – | – | – | – | – | – | – | – | 0.88 ± 0.24 | 0.04 ± 0.012
Cc1c(-c2ccc(F)cc2)c(=O)oc2cccc(OCCC(C)CCCC(C)C)c12 (stereo not drawn) [33b, 5-(3,7-Dimethyloctyloxy)-3-(4-fluorophenyl)-4-methyl-2H-chromen-2-one] | 40 ± 10 | 114 | > 100 | 0.29 ± 0.07 | 0.29 ± 0.07 | – | – | – | – | –
Cc1c(-c2ccccc2[N+](=O)[O-])c(=O)oc2cccc(OCCC(C)CCCC(C)C)c12 (stereo not drawn) [38b, 5-(3,7-Dimethyloctyloxy)-4-methyl-3-(2-nitrophenyl)-2H-chromen-2-one] | – | 61 | – | 2.18 ± 0.13 | – | – | – | – | – | –
CC(C)=CCC/C(C)=C/COc1cccc2oc(=O)c(-c3ccc(Br)cc3)c(C)c12 [34a, (E)-3-(4-Bromophenyl)-5-(3,7-dimethylocta-2,6-dienyloxy)-4-methyl-2H-chromen-2-one] | 53 ± 1.2 | 93 | 32 ± 3 | 1.06 ± 0.06 | 1.06 ± 0.06 | – | – | – | – | –
Cc1c(-c2ccc(Br)cc2)c(=O)oc2cccc(OCCC(C)CCCC(C)C)c12 (stereo not drawn) [34b, 3-(4-Bromophenyl)-5-(3,7-dimethyloctyloxy)-4-methyl-2H-chromen-2-one] | – | 137 | – | – | – | – | – | – | – | –
COc1ccccc1-c1c(C)c2c(OCCC3=CC[C@H]4C[C@@H]3C4(C)C)cccc2oc1=O [37d, 5-(2-((1R,5S)-6,6-Dimethylbicyclo[3.1.1]hept-2-en-2-yl)ethoxy)-3-(2-methoxyphenyl)-4-methyl-2H-chromen-2-one] | 87 ± 7 | 135 | 48 ± 4 | 3.93 ± 0.77 | 3.9 ± 0.8 | – | – | – | – | –
COc1ccc(-c2c(C)c3c(OCC4=CC[C@H]5C[C@@H]4C5(C)C)cccc3oc2=O)cc1 [35c, 5-(((1R,5S)-6,6-Dimethylbicyclo[3.1.1]hept-2-en-2-yl)methoxy)-3-(4-methoxyphenyl)-4-methyl-2H-chromen-2-one] | > 100 | – | 73 ± 6 | 1.14 ± 0.15 | 1.1 ± 0.2 | – | – | – | – | –
CC(C)=CCC/C(C)=C/COc1cccc2oc(=O)c(-c3ccccc3[N+](=O)[O-])c(C)c12 [38a, (E)-5-(3,7-Dimethylocta-2,6-dienyloxy)-4-methyl-3-(2-nitrophenyl)-2H-chromen-2-one] | > 100 | 73 | > 100 | 1.03 ± 0.08 | 1.03 ± 0.08 | protect cells from the cytotoxic effects of topotecan | – | – | – | –
